Laboratory results taken from publication PMC6130495, “Effect of piplartine and cinnamides on Leishmania amazonensis, Plasmodium falciparum and on peritoneal cells of Swiss mice” (Pharmaceutical Biology, 2017).
Values joined by “and” are separate entries in the source; they are usually repeats but may differ in a detail not shown here. Identical values can stand only once. Like-named read-outs stand apart in the source and are kept apart here.

How the values were obtained:
[1] = system: L. amazonensis promastigotes; experiment: Inhibition of L. amazonensis promastigotes, MTT method; format: cell-based, Leishmania amazonensis
Description: The MHOM/BR/pH8 strain was transferred to the NNN solid medium (Novy-MacNeal-Nicolle) for 48 h at 24 °C.
(Sigma-Aldrich) method was used. This method evaluates the cell viability by the activity of mitochondrial succinate dehydrogenase enzyme that cleaves the tetrazolium salt to form formazan crystals in living cells. For the cultures of P. falciparum-infected erythrocytes, the IC50 were determined by optical microscopy.
Then, 10 μL of MTT solution (5 mg/mL) was added to all wells and the cultures were re-incubated at the same condition for 4 h, but protected from light. […] The results were expressed in percentage.

[2] = system: P. falciparum-infected erythrocytes; experiment: Growth inhibition of P. falciparum-infected erythrocytes, optical microscopy; format: cell-based; conditions: Plasmodium falciparum, Erythrocyte; for inhibition at 0.008 µg/mL: positive control, 8 ng/mL
Description: The Pf/Unb169 strain, kept under cryopreservation was culture together with O^+ erythrocytes in RPMI 1640 medium, supplemented with hypoxanthine (0.25 mg/dL), 10% of human serum, and gentamicin ([…]), at 37 °C in air with 5% CO2. For the assays, a suspension with 3% of hematocrit and 0.6% of infected erythrocytes was prepared.
To assess inhibitory or cytotoxic concentrations of the compounds (1–5), able to eliminate 50% of the cells in the cultures of L. amazonensis (IC50) and cytotoxic concentrations (CC50) in the cultures of peritoneal cell, MTT [3-(4,5-dimethylthiazol-2-yl)-2,5-diphenyltetrazolium bromide] (Sigma-Aldrich) method was used. This method evaluates the cell viability by the activity of mitochondrial succinate dehydrogenase enzyme that cleaves the tetrazolium salt to form formazan crystals in living cells. For the cultures of P. falciparum-infected erythrocytes, the IC50 were determined by optical microscopy. The concentrations for the compounds tested were calculated in μg/mL (ranging from 0 to 256 μg/mL), as well their equivalent in […], being: 1 (0 to 806.7 μM), 2 (0 to 833.0 μM), 3 (0 to 923.0 μM), 4 (0 to 832.8 μM) and 5 (0 to 923.1 μM).
A suspension of O^+ human erythrocytes (3% hematocrit and 0.6% of infected erythrocytes) was incubated at 37 °C with 5% of CO2 in air, for 48 or 72 h in RPMI 1640 medium supplemented with 10% human serum, in triplicate, in 96 wells plate, with different concentrations (0 to 256 μg/mL) of compounds (1–5). As positive control, infected erythrocytes were incubated with 8 ng/mL of artesunate (Artemix Ativus, São Paulo, Brazil) and, as negative control, they were incubated exclusively with the diluent (complete RPMI 1640 medium); 50% of the medium, for the cultures incubated for 72 h, was exchanged after 48 h, at the same concentrations as before. After that, 150 μL of the supernatant of the cultures were discarded, and a drop of suspension distended onto slides for microscopy, dried and fixed with methanol, was stained for 15 min with 10% of Giemsa solution (PBS, pH 6.9). The erythrocytes (1000 cells/slide) were analyzed by a single observer with optical microscopy and the results were expressed in percentage of infected cells.
The SI for each amide (1–5) was obtained by dividing the concentration able to eliminate 50% of peritoneal cells (CC50) by the concentration able to inhibit the growth of 50% of the protozoa (IC50). Compounds which presented SI greater than 10 were considered potentially microbicides and safe for the host cells (Bézivin et al. [2003]).

[3] = Cytotoxicity to peritoneal cells, MTT method; format: cell-based, Swiss mice; conditions: both sexes, Swiss, mouse, peritoneal cells (>99% macrophages), 6 h incubation, read-out: Estimated CC50 peritoneal cell 6 h
Description: To obtain peritoneal cells, six adult Swiss mice (male and female), weighing 30 ± 6 g, were used. During the experiments, the animals were kept in the Faculty of Medicine, University of Brasilia under ambient temperature, light/dark cycle of 12 h, fed with balanced diet and water ad libitum. The study was approved by the Ethics Committee on Animal Use (CEUA) of the Institute of Biological Sciences at University of Brasilia (Doc. no. 22199/2014).
To assess inhibitory or cytotoxic concentrations of the compounds (1–5), able to eliminate 50% of the cells in the cultures of L. amazonensis (IC50) and cytotoxic concentrations (CC50) in the cultures of peritoneal cell, MTT [3-(4,5-dimethylthiazol-2-yl)-2,5-diphenyltetrazolium bromide] (Sigma-Aldrich) method was used. This method evaluates the cell viability by the activity of mitochondrial succinate dehydrogenase enzyme that cleaves the tetrazolium salt to form formazan crystals in living cells. […]
Initially, cells obtained by washing the peritoneal cavity of the mice with 10 mL of PBS pH 7.2 at 4 °C, centrifuged at 400 g for 10 min and suspended with 1 mL of RPMI 1640 medium were quantified at Neubauer chamber with 0.05% of nigrosin solution. […] The formazan crystals were solubilized with 50 μL of DMSO/well and the absorbance obtained in spectrophotometer (Spectra Max® Plus 384) with 550 nm. […]

For `COc1cc(/C=C/C(=O)N2CCC=CC2=O)cc(OC)c1OC` [Compound 1, 1-[(E)-3-(3,4,5-trimethoxyphenyl)prop-2-enoyl]-2,3-dihydropyridin-6-one], the “Selectivity Index (SI) = CC50/IC50, L. amazonensis” value ([1]; CC50 peritoneal cells 6 h / IC50 L. amazonensis 6 h) was 1.3, the “Inhibitory activity relative to piperidine analogue (fold)” value ([1]; L. amazonensis promastigotes, fold superior to piperidine analogue (IC50 2297.9 μM)) was 4.07 fold and the IC50 ([1]; Leishmania amazonensis, 6 h, read-out: Estimated IC50 L. amazonensis 6 h) was 564 µM and 179 µg/mL. The IC50 ([2]; 48 h, read-out: Estimated IC50 P. falciparum 48 h) was 19.5 µM and 6.2 µg/mL, the inhibition at 64 µg/mL ([2]; 48 h, read-out: Inhibition of growth of parasites (P. falciparum)) was 100% and the IC50 ([2]; 72 h, read-out: Estimated IC50 P. falciparum 72 h) was 10.1 µM and 3.2 µg/mL. The inhibition at 8 µg/mL ([2]; 72 h, read-out: Inhibition of growth of parasites (P. falciparum)) was 100% and the CC50 at 6 h [3] was 731 µM and 232 µg/mL.
For `CNC[C@H](O)[C@@H](O)[C@H](O)[C@H](O)CO.[O]=[Sb](=[O])[OH]` [N-metilglucamine, antimoniate of N-metilglucamine, reference compound], the “Inhibition of the parasites (L. amazonensis)” value ([1]; positive control, 4 μg/mL, 6 h incubation) was 55.4%.
Work on `C[C@H]1[C@H](OC(=O)CCC(=O)O)O[C@@H]2O[C@@]3(C)CC[C@H]4[C@H](C)CC[C@@H]1[C@@]24OO3` [artesunate, reference compound] yielded an inhibition at 0.008 µg/mL ([2]; 48 h incubation, read-out: Inhibition of the parasites (P. falciparum) 48 h) of 79.8% and an inhibition at 0.008 µg/mL ([2]; 72 h incubation, read-out: Inhibition of the parasites (P. falciparum) 72 h) of 90%.
For `COc1cc(C=CC(=O)N2CCCCC2)cc(OC)c1OC` [piperidine analogue], the IC50 ([1]; previous screening, data not shown, read-out: IC50 on growth of L. amazonensis promastigotes) was 2300 µM.
